# According to patent publication US12459985B2, “G-protein-coupled receptor internal sensors” (THE REGENTS OF THE UNIVERSITY OF CALIFORNIA, priority 2016, dated 2025):
# Columns and labels:
# Mu-opioid receptor = assay: Opioid sensor (cpGFP in Loop3 of the Mu-opioid receptor) response in HEK293T cells; type: cell-based, human
# [1] = molecular target: Beta2AR with a cpGFP integrated into the third intracellular loop (Homo sapiens, UniProt P07550)
# B2AR [2] = molecular target: T1, B2AR (Homo sapiens, UniProt P07550, C265Q/D251A/E249T/E27Q/F240D/F264D/G16R/G238K/G257K/INS236[…]/INS254[…]/K235L/K263H/N244L/Q243V/Q247F/Q250A/R253I/R259E/R260Y/S246E/S261N/S262N/V242M); type: cell-based; settings: universal module 1 in B2AR; 10 μM
# T1 construct: expressed in transfected cells
# 5HT2A receptor = 5HT2A receptor (Homo sapiens, UniProt P28223, DEL264-288/DEL297-315/INS291[…]/INS295[…]/K293E/S316L); assay: 5HT2A receptor sensor with universal module 2, fluorescence response; type: cell-based; settings: universal module 2 in 5HT2A receptor
# Sequence of 5HT2A receptor (P28223 with tags, fused parts or gaps with the stated changes): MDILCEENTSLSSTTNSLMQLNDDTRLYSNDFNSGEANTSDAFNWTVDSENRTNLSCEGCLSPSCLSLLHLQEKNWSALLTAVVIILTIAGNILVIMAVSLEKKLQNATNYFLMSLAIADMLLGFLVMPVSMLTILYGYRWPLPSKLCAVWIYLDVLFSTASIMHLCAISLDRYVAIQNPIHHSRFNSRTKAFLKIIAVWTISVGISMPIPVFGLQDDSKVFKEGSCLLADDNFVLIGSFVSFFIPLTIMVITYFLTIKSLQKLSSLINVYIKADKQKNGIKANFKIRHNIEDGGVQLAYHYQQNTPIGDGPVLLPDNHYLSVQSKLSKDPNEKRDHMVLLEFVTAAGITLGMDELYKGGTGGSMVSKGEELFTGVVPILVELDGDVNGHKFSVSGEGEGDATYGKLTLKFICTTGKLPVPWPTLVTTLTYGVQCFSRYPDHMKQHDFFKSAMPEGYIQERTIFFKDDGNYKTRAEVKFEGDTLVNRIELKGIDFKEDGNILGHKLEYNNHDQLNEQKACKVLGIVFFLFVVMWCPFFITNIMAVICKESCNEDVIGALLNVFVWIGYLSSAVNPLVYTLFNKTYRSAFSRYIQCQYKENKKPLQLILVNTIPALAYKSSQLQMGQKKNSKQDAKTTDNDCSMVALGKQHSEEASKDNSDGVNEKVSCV
# B2AR [3] = molecular target: B2AR (Homo sapiens, UniProt P07550, C265Q/D251A/E249T/E27Q/F240D/F264D/G16R/G238K/G257K/INS233[…]/INS254[…]/K232L/K235P/K263H/L230S/N244L/Q229L/Q231S/Q243V/Q247F/Q250A/R253I/R259E/R260Y/S236N/S246E/S261N/S262N/V242M); assay: B2AR sensor with universal module 2, fluorescence response; type: cell-based; settings: inserted into EAKR-deleted third intracellular loop residues-KEHK of B2AR
molecule,measurement,setting,value
NC[C@H](O)c1ccc(O)c(O)c1 [norepinephrine],τ½ON,"[1]; time constant of association, saturating conditions (1 μM drug)",29.62 s
same,τ½OFF,"[1]; time constant of dissociation, saturating conditions (1 μM drug)",106.91 s
same,ΔF/F,B2AR [2],150%
NCCc1ccc(O)c(O)c1 [Dopamine],specific response of the sensor,"[1]; 50 μM, non-Beta2AR ligands",did not detect any specific response
NCCc1c[nH]c2ccc(O)cc12 [Serotonin],ΔF/F response,5HT2A receptor,~30%
LSSLI-cpGFP-NHDQL [Universal module 2],ΔF/F,B2AR [3],100%
